Reference: US5086072A, “Treatment of mood disorders with functional antagonists of the glycine/NMDA receptor complex” (The United States of America as represented by the …, priority 1990, dated 1992)
Where two headings read alike, the source gives them in different places.

Columns and labels:
[1] = forced swim test, duration of immobility during last 4 minutes of 6 minute swim; assay type: in vivo, mice (male NIH/HSD); conditions: for IMMOBILITY %: change versus control; for minimal effective dose: Mus musculus, read-out: minimum effective dose, swim-induced immobility
Experimental: (§1) Certain exemplary compounds encompassed hereby were evaluated pharmacologically in mice using the forced swim (8) and/or tail suspension (9) tests. These tests were initially designed to detect potential antidepressant agents (13, 14) based on the abilities of clinically effective antidepressants to reduce the immobility that animals typically display after active and unsuccessful escape attempts when subjected to these inescapable stressors. Moreover, the predictive validity (15) and pharmacological specificity (13, 14) of these tests has led to the proposal that they represent animal models of depression. (16)
The duration of immobility was measured during the […]
Values represent means ± standard error of the mean. The number of animals examined in the forced swim test was: VEH, 40; ACPC 25 mg/kg, 11 and 50-600 mg/kg, 10. In the open field, the number of animals tested was: VEH 23; 50 and 600 mg/kg, 5; and 100-400 mg/kg, 10. Male NIH/HSD mice (25-30 g) were injected i.p. with ACPC dissolved in saline. Controls received an equivalent volume of saline. […] (8) The ambulatory time in an open field was measured for five minutes, fifteen minutes after injection of ACPC as described in Table 1.
(§2) Glycine (800 mg/kg) or an equivalent volume of saline was administered intraperitoneally to NIH/HSD mice 45 minutes prior to ACPC (400 mg/kg). Fifteen minutes after ACPC administration, animals were evaluated in the forced swim test or in an open field as described in Table 1. This dose of glycine was selected based on a previous report (40), showing that parenteral administration of large doses is required to elevate cerebral levels of glycine. […] Amino acid levels were determined using HPLC/EC with an isocratic separation method and pre-column amino acid derivatization with o-pthalaldehyde and β-mercaptoethano (41).

[2] = assay type: in vivo, mice (male NIH/HSD); conditions: for ACTIVITY (time spent ambulating in an open field): mean ± SEM
Experimental: Values represent means ± standard error of the mean. The number of animals examined in the forced swim test was: VEH, 40; ACPC 25 mg/kg, 11 and 50-600 mg/kg, 10. In the open field, the number of animals tested was: VEH 23; 50 and 600 mg/kg, 5; and 100-400 mg/kg, 10. Male NIH/HSD mice (25-30 g) were injected i.p. with ACPC dissolved in saline. Controls received an equivalent volume of saline. Fifteen minutes later, mice were placed in a cylinder (diameter: 10 cm; height: 25 cm) filled with 6 cm of water (22°-25° C.) and the duration of immobility during the last four minutes of forced swim was measured as described. (8) The ambulatory time in an open field was measured for five minutes, fifteen minutes after injection of ACPC as described in Table 1.
as §2

[3] = forced swim and/or tail suspension tests (overall conclusion); assay type: in vivo, mice
Experimental: as §1

NMDA receptor complex = conditions: cited from earlier work
[4] = behavioral effects and lethality observed in connection with forced swim; conditions: for behavioral effects prior to forced swim: I2CA 25-200, HA-966 2.5-10, ACBC 50-100 mg/kg; for lethality combined with forced swim: I2CA 25-200, HA-966 2.5-10 mg/kg
Experimental: (§3) Inset: Effects of ACPC on tail suspension-induced immobility. Values are mean standard error of immobility (sec.) during a 6 minute test. The number of animals used in this test was: VEH, 16; ACPC, 200 mg/kg, 6; 300 mg/kg, 9 and 400 mg/kg, 7. Male C57Bl/6J mice [20-25 g](Jackson Laboratories, Bar Harbor, ME) were injected with ACPC. Fifteen minutes later, mice were suspended by the tail and the duration of immobility measured as described. […] 7-chlorokynurenic acid (25-150 mg/kg), indole2-carboxylic acid (I2CA) (25-200 mg/kg), 3-amino-1-hydroxypyrrolidone (HA-966) (2.5-10 mg/kg), cycloleucine (100-400 mg/kg) and 1-aminocyclobutanecarboxylic acid (ACBC) (50-100 mg/kg) were tested under identical conditions to those employed for the other agents (Table 1 and FIG. 1).

[5] = tail suspension test, duration of immobility; assay type: in vivo, mice (male C57Bl/6J); conditions: 200-400 mg/kg, 15 min before test; F(2,31)=29, p<0.0001
Experimental: as §3

[6] = ambulatory time in the open field (tail suspension study); assay type: in vivo, C57Bl/6J mice; conditions: 400 mg/kg
[7] = molecular target: strychnine-insensitive glycine receptors; conditions: cited from earlier work
[8] = molecular target: strychnine sensitive glycine receptors; conditions: cited from earlier work
[9] = test system: NMDA-gated cation channel; conditions: compared with glycine; cited from earlier work
[10] = cited from earlier work
[11] = cited from earlier work; remark: listed apart in the source
[12] = assay type: in vivo, mice (male NIH/HSD); conditions: for ACTIVITY (time spent ambulating in an open field): 30 min before test, mean ± SEM
[13] = 60 min after 800 mg/kg i.p.; data not shown
Experimental: as §2

[14] = 0.1 mg/kg i.p., 15 min before test
[15] = 0.5 mg/kg i.p., 15 min before test
[16] = 1 mg/kg i.p., 15 min before test
[17] = 7-chlorokynurenic acid 25-150, I2CA 25-200, HA-966 2.5-10, cycloleucine 100-400, ACBC 50-100 mg/kg

## C[C@]12N[C@H](Cc3ccccc31)c1ccccc12 (racemic) [MK-801, (+)-5-methyl-10,11-dihydro-5H-dibenzo[a,d]cycloheptene-5, 10-imine]
[1]; [14]
  IMMOBILITY %: -43%
[1]; 0.1 mg/kg i.p., 15 min before test, mean ± SEM
  IMMOBILITY: 80 ± 10 s
[1]; 0.5 mg/kg
  maximum reduction of duration of immobility: 92%
[1]; [15]
  IMMOBILITY %: -92%
[1]; 0.5 mg/kg i.p., 15 min before test, mean ± SEM
  IMMOBILITY: 11 ± 4 s
[1]; [16]
  IMMOBILITY %: -54%
[1]; 1 mg/kg i.p., 15 min before test, mean ± SEM
  IMMOBILITY: 64 ± 23 s
[1]; 0.1 and 1 mg/kg
  reduction of duration of immobility: 43-54%
[1]; biphasic, doses of Table 1
  effect on duration of immobility in the forced swim test: reduced significantly the duration of immobility
[2]; [14]
  ACTIVITY (time spent ambulating in an open field): 144 ± 4 s
[2]; 0.5 mg/kg
  increase in ambulatory time in an open field: 34%
[2]; 0.5 mg/kg i.p., 15 min before test, change versus control
  ACTIVITY %: +34%
[2]; [15]
  ACTIVITY (time spent ambulating in an open field): 201 ± 3 s
[2]; [16]
  ACTIVITY (time spent ambulating in an open field): 170 ± 14 s
[2]; 0.1 and 1 mg/kg
  effect on ambulatory time: did not alter ambulatory time
[3]
  activity in the antidepressant models: mimic clinically effective antidepressants in these models
NMDA receptor complex
  activity at the NMDA receptor complex: non-competitive NMDA antagonist

## O=C(O)c1cc(O)c2ccc(Cl)cc2n1 [7-chlorokynurenic acid]
[1]; [17]
  effect on immobility in the forced swim test: did not reduce immobility in the forced swim test

## NC1(C(=O)O)CCC1 [ACBC, 1-aminocyclobutanecarboxylic acid]
[1]; [17]
  effect on immobility in the forced swim test: did not reduce immobility in the forced swim test
[4]
  behavioral effects prior to forced swim: marked behavioral effects, including ataxia

## NC1(C(=O)O)CC1 [ACPC, 1-aminocyclopropanecarboxylic acid]
[1]
  minimal effective dose: 100 mg/kg
[1]; mouse, in vivo
  effect of glycine on the action of ACPC in the forced swim test: completely abolished
  effect on immobility in the forced swim test: reduced immobility in the forced swim test in a dosedependent fashion
  maximum reduction of immobility in the forced swim test: 65%
[1]; mouse, in vivo, 200 mg/kg
  further effect on immobility at higher doses: no further reductions in immobility
[2]; 600 mg/kg, F(5,60)=10, p<0.0001
  increase in ambulatory time: 29%
[2]; glycine 800 mg/kg i.p. 45 min prior to ACPC 400 mg/kg
  effect of glycine on the locomotor effects of ACPC in the open field: partial antagonism
[5]
  effect on immobility in the tail suspension test: reduction in immobility
[6]
  increase in ambulatory time in the open field: 18%
[3]
  activity in the antidepressant models: mimic clinically effective antidepressants in these models
[7]
  Ki: ~0.032 µM
  activity at the strychnine-insensitive glycine binding site: potent and selective partial agonist
[8]
  IC50: > 1000 µM
[9]
  efficacy in stimulating [3H]MK-801 binding: significantly less efficacious than glycine
[10]
  anticonflict actions in animal models: possesses anticonflict actions in animal models
[11]
  muscle relaxation or ataxia: do not produce the muscle relaxation or ataxia

## COC(=O)C1(N)CC1 [ACPCM, methyl 1-aminocyclopropanecarboxylate]
[1]; Table 2
  minimal effective dose: 50 mg/kg
[1]; Table 2, 25 mg/kg
  IMMOBILITY: 126 ± 8 s
  IMMOBILITY %: -8%
[1]; Table 2, 50 mg/kg
  IMMOBILITY: 89 ± 17 s
  IMMOBILITY %: -35%
[1]; Table 2, 100 mg/kg
  IMMOBILITY: 40 ± 18 s
  IMMOBILITY %: -71%
[1]; Table 2, 150 mg/kg
  IMMOBILITY: 69 ± 10 s
  IMMOBILITY %: -50%

## NC(CCCCCP(=O)(O)O)C(=O)O (stereo not drawn) [AP-7, 2-amino-7-phosphonoheptanoic acid]
[1]; 40 mg/kg i.p., 30 min before test, mean ± SEM
  IMMOBILITY: 141 ± 21 s
[1]; 80 mg/kg i.p., 30 min before test, mean ± SEM
  IMMOBILITY: 153 ± 9 s
[1]; 100 mg/kg i.p., 30 min before test
  IMMOBILITY %: -35%
[1]; 100 mg/kg i.p., 30 min before test, mean ± SEM
  IMMOBILITY: 93 ± 8 s
[1]; 200 mg/kg i.p., 30 min before test
  IMMOBILITY %: -62%
[1]; 200 mg/kg i.p., 30 min before test, mean ± SEM
  IMMOBILITY: 55 ± 13 s
[1]; F(4,71) = 17, p<0.0001
  effect on duration of immobility in the forced swim test: significant, dose dependent reduction in the duration of immobility
[2]; doses of Table 1
  effect on ambulatory time in an open field: without affecting ambulatory time
[3]
  activity in the antidepressant models: mimic clinically effective antidepressants in these models
[12]; 40 mg/kg i.p.
  ACTIVITY (time spent ambulating in an open field): 144 ± 5 s
[12]; 80 mg/kg i.p.
  ACTIVITY (time spent ambulating in an open field): 167 ± 16 s
[12]; 100 mg/kg i.p.
  ACTIVITY (time spent ambulating in an open field): 153 ± 5 s
[12]; 200 mg/kg i.p.
  ACTIVITY (time spent ambulating in an open field): 134 ± 10 s
NMDA receptor complex
  activity at the NMDA receptor complex: competitive antagonist

## NC1CCN(O)C1=O (stereo not drawn) [HA-966, 3-amino-1-hydroxypyrrolidone]
[1]; [17]
  effect on immobility in the forced swim test: did not reduce immobility in the forced swim test
[4]
  lethality combined with forced swim: lethal when combined with forced swim
  behavioral effects prior to forced swim: marked behavioral effects, including ataxia

## O=C(O)c1cc2ccccc2[nH]1 [I2CA, indole2-carboxylic acid]
[1]; [17]
  effect on immobility in the forced swim test: did not reduce immobility in the forced swim test
[4]
  lethality combined with forced swim: lethal when combined with forced swim
  behavioral effects prior to forced swim: marked behavioral effects, including ataxia

## NC1(C(=O)O)CCCC1 [cycloleucine]
[1]; [17]
  effect on immobility in the forced swim test: did not reduce immobility in the forced swim test

## NCC(=O)O [glycine]
[1]; mouse, in vivo
  intrinsic activity in the forced swim test: devoid of intrinsic activity
[13]
  concentrations of other amino acids (glutamate, serine, taurine, GABA, alanine) in the hippocampus: unchanged
[12]; mouse, in vivo
  intrinsic activity in the open field: devoid of intrinsic activity
